Assay results taken from PubChem BioAssay (NCI).
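Exposure lasted 48 hours, with cells grown in 96-well plates and compounds tested at five concentrations. TGI: concentration producing complete growth inhibition.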

Assays:
Assay in all cases: NCI-60 cell line screen, 48 h
MOLT-4 leukemia = test system: MOLT-4 leukemia
SK-MEL-2 melanoma = test system: SK-MEL-2 melanoma
HT29 colon = test system: HT29 colon
SF-539 CNS = test system: SF-539 CNS
RXF 393 renal = test system: RXF 393 renal
HL-60(TB) leukemia = test system: HL-60(TB) leukemia
SK-MEL-28 melanoma = test system: SK-MEL-28 melanoma
MALME-3M melanoma = test system: MALME-3M melanoma
NCI-H23 lung = test system: NCI-H23 lung
786-0 renal = test system: 786-0 renal
SNB-19 CNS = test system: SNB-19 CNS
TK-10 renal = test system: TK-10 renal
OVCAR-8 ovarian = test system: OVCAR-8 ovarian
NCI-H460 lung = test system: NCI-H460 lung
UACC-257 melanoma = test system: UACC-257 melanoma
HCT-15 colon = test system: HCT-15 colon
U251 CNS = test system: U251 CNS
SK-OV-3 ovarian = test system: SK-OV-3 ovarian
SF-268 CNS = test system: SF-268 CNS
KM12 colon = test system: KM12 colon
SF-295 CNS = test system: SF-295 CNS
A549 NSCLC = test system: A549 NSCLC
ACHN renal = test system: ACHN renal
K-562 leukemia = test system: K-562 leukemia
SN12C renal = test system: SN12C renal
NCI-H226 lung = test system: NCI-H226 lung
OVCAR-3 ovarian = test system: OVCAR-3 ovarian
SK-MEL-5 melanoma = test system: SK-MEL-5 melanoma
UO-31 renal = test system: UO-31 renal
SR leukemia = test system: SR leukemia
DMS 114 small cell lung = test system: DMS 114 small cell lung
RPMI-8226 leukemia = test system: RPMI-8226 leukemia
OVCAR-5 ovarian = test system: OVCAR-5 ovarian
DLD-1 colon = test system: DLD-1 colon
M14 melanoma = test system: M14 melanoma
IGROV1 ovarian = test system: IGROV1 ovarian
CCRF-CEM leukemia = test system: CCRF-CEM leukemia
EKVX NSCLC = test system: EKVX NSCLC
HOP-92 NSCLC = test system: HOP-92 NSCLC
XF 498 CNS = test system: XF 498 CNS
HCC-2998 colon = test system: HCC-2998 colon
SW-620 colon = test system: SW-620 colon
M19-MEL melanoma = test system: M19-MEL melanoma
COLO 205 colon = test system: COLO 205 colon
KM20L2 colon = test system: KM20L2 colon
SNB-78 CNS = test system: SNB-78 CNS
HOP-62 NSCLC = test system: HOP-62 NSCLC
A498 renal = test system: A498 renal
HCT-116 colon = test system: HCT-116 colon
LXFL 529 NSCLC = test system: LXFL 529 NSCLC
NCI-H522 lung = test system: NCI-H522 lung
OVCAR-4 ovarian = test system: OVCAR-4 ovarian
CAKI-1 renal = test system: CAKI-1 renal
SNB-75 CNS = test system: SNB-75 CNS
UACC-62 melanoma = test system: UACC-62 melanoma
LOX IMVI melanoma = test system: LOX IMVI melanoma
DMS 273 small cell lung = test system: DMS 273 small cell lung

CCOC(=O)C(Cc1c(C=O)[nH]c2ccccc12)(NC(=O)c1ccccc1)C(=O)OCC
TGI (MOLT-4 leukemia): 37.1 µM
TGI (SK-MEL-2 melanoma): 32.4 µM
TGI (HT29 colon): 37.2 µM
TGI (SF-539 CNS): 30.3 µM
TGI (RXF 393 renal): 26 µM
TGI (HL-60(TB) leukemia): > 100 µM
TGI (SK-MEL-28 melanoma): 34.2 µM
TGI (MALME-3M melanoma): 33.9 µM
TGI (NCI-H23 lung): 37.1 µM
TGI (786-0 renal): 34.7 µM
TGI (SNB-19 CNS): 18.4 µM
TGI (TK-10 renal): 69.9 µM
TGI (OVCAR-8 ovarian): 65.7 µM
TGI (NCI-H460 lung): 59.7 µM
TGI (UACC-257 melanoma): 39.2 µM
TGI (HCT-15 colon): 29.8 µM
TGI (U251 CNS): 25.5 µM
TGI (SK-OV-3 ovarian): 79.8 µM
TGI (SF-268 CNS): 39.5 µM
TGI (KM12 colon): 26.9 µM
TGI (SF-295 CNS): 33 µM
TGI (A549 NSCLC): 42.2 µM
TGI (ACHN renal): 39.3 µM
TGI (K-562 leukemia): 45.2 µM
TGI (SN12C renal): 26.6 µM
TGI (NCI-H226 lung): 45.9 µM
TGI (OVCAR-3 ovarian): 40.3 µM
TGI (SK-MEL-5 melanoma): 24.5 µM
TGI (UO-31 renal): 62.4 µM
TGI (SR leukemia): > 100 µM
TGI (DMS 114 small cell lung): 39 µM
TGI (RPMI-8226 leukemia): > 100 µM
TGI (OVCAR-5 ovarian): 35.3 µM
TGI (DLD-1 colon): 25 µM
TGI (M14 melanoma): 33.7 µM
TGI (IGROV1 ovarian): 43.7 µM
TGI (CCRF-CEM leukemia): 39 µM
TGI (EKVX NSCLC): 42.7 µM
TGI (HOP-92 NSCLC): 31.3 µM
TGI (XF 498 CNS): 32.1 µM
TGI (HCC-2998 colon): 24.6 µM
TGI (SW-620 colon): 32.1 µM
TGI (M19-MEL melanoma): 31.8 µM
TGI (COLO 205 colon): 34.7 µM

Nc1cc(C(=O)NC2C3CC4CC(C3)CC2C4)[nH]c(=S)n1 (stereo not drawn)
TGI (MOLT-4 leukemia): > 100 µM
TGI (KM20L2 colon): > 100 µM
TGI (HT29 colon): > 100 µM
TGI (SF-539 CNS): > 100 µM
TGI (RXF 393 renal): > 100 µM
TGI (HL-60(TB) leukemia): > 100 µM
TGI (SK-MEL-28 melanoma): > 100 µM
TGI (MALME-3M melanoma): > 100 µM
TGI (NCI-H23 lung): > 100 µM
TGI (SNB-78 CNS): > 100 µM
TGI (786-0 renal): > 100 µM
TGI (HOP-62 NSCLC): > 100 µM
TGI (SNB-19 CNS): > 100 µM
TGI (A498 renal): > 100 µM
TGI (OVCAR-8 ovarian): > 100 µM
TGI (NCI-H460 lung): > 100 µM
TGI (UACC-257 melanoma): > 100 µM
TGI (HCT-116 colon): > 100 µM
TGI (HCT-15 colon): > 100 µM
TGI (U251 CNS): > 100 µM
TGI (SK-OV-3 ovarian): > 100 µM
TGI (LXFL 529 NSCLC): > 100 µM
TGI (SF-268 CNS): > 100 µM
TGI (A549 NSCLC): > 100 µM
TGI (K-562 leukemia): > 100 µM
TGI (SN12C renal): > 100 µM
TGI (NCI-H522 lung): > 100 µM
TGI (NCI-H226 lung): > 100 µM
TGI (OVCAR-3 ovarian): > 100 µM
TGI (SK-MEL-5 melanoma): > 100 µM
TGI (OVCAR-4 ovarian): > 100 µM
TGI (UO-31 renal): > 100 µM
TGI (SR leukemia): > 100 µM
TGI (DLD-1 colon): > 100 µM
TGI (M14 melanoma): > 100 µM
TGI (IGROV1 ovarian): > 100 µM
TGI (CCRF-CEM leukemia): > 100 µM
TGI (CAKI-1 renal): > 100 µM
TGI (EKVX NSCLC): > 100 µM
TGI (HOP-92 NSCLC): > 100 µM
TGI (XF 498 CNS): > 100 µM
TGI (HCC-2998 colon): > 100 µM
TGI (SW-620 colon): > 100 µM
TGI (SNB-75 CNS): > 100 µM
TGI (M19-MEL melanoma): > 100 µM

COc1c(Cl)cc(Cl)cc1S(=O)O
TGI (MOLT-4 leukemia): > 100 µM
TGI (SK-MEL-2 melanoma): > 100 µM
TGI (HT29 colon): > 100 µM
TGI (SF-539 CNS): > 100 µM
TGI (RXF 393 renal): > 100 µM
TGI (HL-60(TB) leukemia): > 100 µM
TGI (SK-MEL-28 melanoma): > 100 µM
TGI (UACC-62 melanoma): > 100 µM
TGI (MALME-3M melanoma): > 100 µM
TGI (NCI-H23 lung): > 100 µM
TGI (SNB-78 CNS): > 100 µM
TGI (HOP-62 NSCLC): > 100 µM
TGI (SNB-19 CNS): > 100 µM
TGI (A498 renal): > 100 µM
TGI (TK-10 renal): > 100 µM
TGI (LOX IMVI melanoma): > 100 µM
TGI (NCI-H460 lung): > 100 µM
TGI (UACC-257 melanoma): > 100 µM
TGI (HCT-116 colon): > 100 µM
TGI (U251 CNS): > 100 µM
TGI (SK-OV-3 ovarian): > 100 µM
TGI (LXFL 529 NSCLC): > 100 µM
TGI (SF-268 CNS): > 100 µM
TGI (KM12 colon): > 100 µM
TGI (ACHN renal): > 100 µM
TGI (K-562 leukemia): > 100 µM
TGI (SN12C renal): > 100 µM
TGI (NCI-H522 lung): > 100 µM
TGI (OVCAR-3 ovarian): > 100 µM
TGI (OVCAR-4 ovarian): > 100 µM
TGI (UO-31 renal): > 100 µM
TGI (SR leukemia): > 100 µM
TGI (DMS 114 small cell lung): > 100 µM
TGI (OVCAR-5 ovarian): > 100 µM
TGI (DLD-1 colon): > 100 µM
TGI (M14 melanoma): > 100 µM
TGI (CCRF-CEM leukemia): > 100 µM
TGI (EKVX NSCLC): > 100 µM
TGI (XF 498 CNS): > 100 µM
TGI (HCC-2998 colon): > 100 µM
TGI (SNB-75 CNS): > 100 µM
TGI (M19-MEL melanoma): > 100 µM

CCCCN(CCCC)CC(C(=O)Nc1ccccc1)/C(C)=N\NC(=O)c1ccncc1 (stereo not drawn)
TGI (MOLT-4 leukemia): > 100 µM
TGI (KM20L2 colon): > 100 µM
TGI (HT29 colon): > 100 µM
TGI (SF-539 CNS): > 100 µM
TGI (RXF 393 renal): > 100 µM
TGI (HL-60(TB) leukemia): > 100 µM
TGI (SK-MEL-28 melanoma): > 100 µM
TGI (UACC-62 melanoma): > 100 µM
TGI (MALME-3M melanoma): > 100 µM
TGI (NCI-H23 lung): > 100 µM
TGI (SNB-78 CNS): > 100 µM
TGI (786-0 renal): > 100 µM
TGI (HOP-62 NSCLC): > 100 µM
TGI (SNB-19 CNS): > 100 µM
TGI (TK-10 renal): > 100 µM
TGI (OVCAR-8 ovarian): > 100 µM
TGI (LOX IMVI melanoma): > 100 µM
TGI (NCI-H460 lung): > 100 µM
TGI (UACC-257 melanoma): > 100 µM
TGI (HCT-116 colon): > 100 µM
TGI (HCT-15 colon): > 100 µM
TGI (U251 CNS): > 100 µM
TGI (SK-OV-3 ovarian): > 100 µM
TGI (SF-268 CNS): > 100 µM
TGI (KM12 colon): > 100 µM
TGI (SF-295 CNS): > 100 µM
TGI (A549 NSCLC): > 100 µM
TGI (ACHN renal): > 100 µM
TGI (K-562 leukemia): > 100 µM
TGI (SN12C renal): > 100 µM
TGI (NCI-H522 lung): > 100 µM
TGI (NCI-H226 lung): > 100 µM
TGI (OVCAR-3 ovarian): > 100 µM
TGI (SK-MEL-5 melanoma): > 100 µM
TGI (OVCAR-4 ovarian): > 100 µM
TGI (DMS 273 small cell lung): > 100 µM
TGI (UO-31 renal): > 100 µM
TGI (SR leukemia): > 100 µM
TGI (DMS 114 small cell lung): > 100 µM
TGI (RPMI-8226 leukemia): > 100 µM
TGI (OVCAR-5 ovarian): > 100 µM
TGI (DLD-1 colon): > 100 µM
TGI (M14 melanoma): > 100 µM
TGI (IGROV1 ovarian): > 100 µM
TGI (CAKI-1 renal): > 100 µM
TGI (HOP-92 NSCLC): > 100 µM
TGI (XF 498 CNS): > 100 µM
TGI (HCC-2998 colon): > 100 µM
TGI (SW-620 colon): > 100 µM
TGI (SNB-75 CNS): > 100 µM
TGI (M19-MEL melanoma): > 100 µM
TGI (COLO 205 colon): > 100 µM
